pIC50: −log10 of the molar value.
Tests used:
Format in all cases: biochemical
Lyn = biological target: T1, Lyn (Homo sapiens, UniProt P07948); assay: Kinase inhibition assay (33P transfer), Lyn; details: Table 6, Lyn-1 kinase inhibition class
T1 construct: Kinases are expressed as either kinase domains or full length constructs; made in house
Source text: (§1) The inhibitor compounds described herein are screened in the following manner. Kinases suitable for use in the following protocol to determine kinase activity of the compounds described herein include, -but are not limited to: Lck, Lyn, Src, Fyn, Syk, Zap-70, Itk, Tec, Btk, EGFR, ErbB2, Kdr, Flt-1, Flt-3, Tek, c-Met, InsR, and AKT.
(§2) Kinases are expressed as either kinase domains or full length constructs fused to glutathione S-transferase (GST) or polyHistidine tagged fusion proteins in either E. colior Baculovirus-High Five expression systems. They are purified to near homogeneity by affinity chromatography essentially as previously described (Lehr et al., 1996; Gish et al., 1995). In some instances, kinases are co-expressed or mixed with purified or partially purified regulatory polypeptides prior to measurement of activity.
(§3) Kinase activity and inhibition are measured essentially by established protocols (Braunwalder et al., 1996). Briefly, The transfer of ^33PO4 from ATP to the synthetic substrates poly(Glu, Tyr) 4:1 or poly(Arg, Ser) 3:1 attached to the bioactive surface of microtiter plates serves as the basis to evaluate enzyme activity. After an incubation period, the amount of phosphate transferred is measured by first washing the plate with 0.5% phosphoric acid, adding liquid scintillant, and then counting in a liquid scintillation detector. The IC50 is determined by the concentration of compound that causes a 50% reduction in the amount of […] incorporated onto the substrate bound to the plate.

PDGFRB = biological target: T2, PDGFRB (Homo sapiens, UniProt P09619); assay: Kinase inhibition assay (33P transfer), PDGFRB; details: read-out: PDGFRB-1
T2 construct: Kinases are expressed as either kinase domains or full length constructs; made in house

AKT = biological target: T3, AKT (Homo sapiens, UniProt Q9Y243); assay: Kinase inhibition assay (33P transfer), AKT; details: Table 2, kinase inhibition class; read-out: AKT3-1
T3 construct: Kinases are expressed as either kinase domains or full length constructs; made in house
In short: (§4)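 Steps: express kinase as GST or polyHistidine fusion in E. coli or High Five cells; optionally co-express or mix with regulatory polypeptides; incubate with 33P-ATP and plate-attached poly(Glu,Tyr) 4:1 or poly(Arg,Ser) 3:1; wash with 0.5% phosphoric acid; count by liquid scintillation.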

Src = biological target: T4, Src (Homo sapiens, UniProt P12931); assay: Kinase inhibition assay (33P transfer), Src; details: Table 6, Src-1 kinase inhibition class
T4 construct: Kinases are expressed as either kinase domains or full length constructs; made in house
T4 sequence (P12931 whole entry, species assumed, the tested form may be a part): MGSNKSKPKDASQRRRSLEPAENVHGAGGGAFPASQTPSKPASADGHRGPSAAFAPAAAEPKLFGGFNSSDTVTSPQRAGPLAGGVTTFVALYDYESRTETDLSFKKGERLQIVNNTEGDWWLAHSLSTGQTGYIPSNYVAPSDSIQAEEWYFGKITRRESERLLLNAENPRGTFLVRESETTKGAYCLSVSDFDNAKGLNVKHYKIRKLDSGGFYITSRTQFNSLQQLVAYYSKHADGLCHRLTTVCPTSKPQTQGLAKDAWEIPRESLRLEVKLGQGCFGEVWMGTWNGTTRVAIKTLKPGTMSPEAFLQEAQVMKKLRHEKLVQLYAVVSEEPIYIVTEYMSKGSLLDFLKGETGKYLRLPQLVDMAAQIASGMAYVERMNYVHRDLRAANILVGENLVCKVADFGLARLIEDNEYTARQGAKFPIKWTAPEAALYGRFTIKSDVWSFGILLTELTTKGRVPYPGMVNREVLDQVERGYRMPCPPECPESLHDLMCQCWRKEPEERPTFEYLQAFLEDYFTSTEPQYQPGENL
Source text: as §1, §2, §3

ErbB4 = biological target: T5, ErbB4 (Homo sapiens, UniProt Q15303); assay: Kinase inhibition assay (33P transfer), ErbB4; details: read-out: ErbB4-1
T5 construct: Kinases are expressed as either kinase domains or full length constructs; made in house

Fyn = biological target: T6, Fyn (Homo sapiens, UniProt P06241); assay: Kinase inhibition assay (33P transfer), Fyn; details: read-out: Fyn-1
T6 construct: Kinases are expressed as either kinase domains or full length constructs; made in house
Source text: as §1, §2, §3

EGFR = biological target: T7, EGFR (Homo sapiens, UniProt P00533); assay: Kinase inhibition assay (33P transfer), EGFR; details: Table 2, kinase inhibition class; read-out: EGFR-1
T7 construct: Kinases are expressed as either kinase domains or full length constructs; made in house
T7 sequence (P00533 25-1210, species assumed): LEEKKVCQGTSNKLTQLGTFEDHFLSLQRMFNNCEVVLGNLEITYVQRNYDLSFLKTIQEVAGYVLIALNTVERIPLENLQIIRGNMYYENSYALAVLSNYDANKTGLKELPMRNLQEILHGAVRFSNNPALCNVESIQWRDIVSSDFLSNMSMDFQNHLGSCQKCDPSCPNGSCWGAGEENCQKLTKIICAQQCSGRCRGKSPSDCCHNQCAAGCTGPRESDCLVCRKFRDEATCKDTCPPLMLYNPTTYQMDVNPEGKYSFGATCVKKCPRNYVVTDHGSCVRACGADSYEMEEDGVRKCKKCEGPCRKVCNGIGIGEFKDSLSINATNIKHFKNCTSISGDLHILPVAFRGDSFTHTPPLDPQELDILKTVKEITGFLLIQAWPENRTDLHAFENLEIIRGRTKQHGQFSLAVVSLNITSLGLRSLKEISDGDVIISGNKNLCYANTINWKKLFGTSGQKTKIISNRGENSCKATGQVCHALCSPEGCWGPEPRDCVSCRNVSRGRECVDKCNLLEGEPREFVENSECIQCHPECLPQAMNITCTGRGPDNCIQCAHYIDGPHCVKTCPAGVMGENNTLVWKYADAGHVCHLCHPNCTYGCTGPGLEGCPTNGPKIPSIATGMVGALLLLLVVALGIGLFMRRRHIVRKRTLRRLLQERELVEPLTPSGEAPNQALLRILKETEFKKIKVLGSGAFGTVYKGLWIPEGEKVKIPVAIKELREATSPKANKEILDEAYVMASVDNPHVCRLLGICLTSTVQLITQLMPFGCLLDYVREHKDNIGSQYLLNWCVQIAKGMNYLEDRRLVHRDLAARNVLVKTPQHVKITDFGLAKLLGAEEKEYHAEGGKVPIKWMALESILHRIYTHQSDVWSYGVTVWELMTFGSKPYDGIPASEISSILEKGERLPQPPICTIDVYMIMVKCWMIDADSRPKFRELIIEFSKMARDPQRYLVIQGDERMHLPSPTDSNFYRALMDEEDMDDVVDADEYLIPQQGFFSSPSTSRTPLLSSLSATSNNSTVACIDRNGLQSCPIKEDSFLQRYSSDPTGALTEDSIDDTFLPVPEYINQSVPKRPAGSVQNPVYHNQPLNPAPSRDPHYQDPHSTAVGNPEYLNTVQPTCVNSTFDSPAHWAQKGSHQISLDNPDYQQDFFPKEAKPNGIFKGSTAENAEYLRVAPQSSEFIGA
In short: (§5)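 Using immobilised substrate copolymers (poly(Glu,Tyr) 4:1; poly(Arg,Ser) 3:1) and [33P]ATP, purified fusion kinases were allowed to react; plates were then rinsed in 0.5% phosphoric acid and counted in a scintillation detector. Half-maximal inhibition of label transfer defines IC50.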

Itk = biological target: T8, Itk (Homo sapiens, UniProt Q08881); assay: Kinase inhibition assay (33P transfer), Itk; details: Table 3; read-out: Itk-1
T8 construct: Kinases are expressed as either kinase domains or full length constructs; made in house
T8 sequence (Q08881 1-620): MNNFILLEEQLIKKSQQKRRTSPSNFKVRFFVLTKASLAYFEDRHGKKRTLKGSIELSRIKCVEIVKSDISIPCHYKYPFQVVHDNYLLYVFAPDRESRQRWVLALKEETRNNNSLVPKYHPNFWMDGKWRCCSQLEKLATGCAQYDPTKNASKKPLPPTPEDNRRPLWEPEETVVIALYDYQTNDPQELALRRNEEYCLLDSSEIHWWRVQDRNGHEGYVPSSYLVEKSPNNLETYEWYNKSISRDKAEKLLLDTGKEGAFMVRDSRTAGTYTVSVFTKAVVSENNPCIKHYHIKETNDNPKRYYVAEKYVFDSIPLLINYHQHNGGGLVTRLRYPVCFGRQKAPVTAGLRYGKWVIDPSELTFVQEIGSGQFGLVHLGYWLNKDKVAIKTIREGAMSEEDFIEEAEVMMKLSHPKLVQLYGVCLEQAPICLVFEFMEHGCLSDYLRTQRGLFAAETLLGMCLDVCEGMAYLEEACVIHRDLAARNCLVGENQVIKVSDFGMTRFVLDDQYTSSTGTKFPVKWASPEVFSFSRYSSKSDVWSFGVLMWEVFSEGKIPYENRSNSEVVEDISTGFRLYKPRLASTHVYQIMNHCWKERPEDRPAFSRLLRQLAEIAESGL
In short: as §5

Lck = biological target: T9, Lck (Homo sapiens, UniProt P06239); assay: Kinase inhibition assay (33P transfer), Lck; details: Table 3; read-out: Lck-1
T9 construct: Kinases are expressed as either kinase domains or full length constructs; made in house
In short: as §4

Hck-1 = biological target: T10, Hck-1 (Homo sapiens, UniProt P08631); assay: Kinase inhibition assay (33P transfer), Hck; details: Table 6, Hck-1 kinase inhibition class
T10 construct: Kinases are expressed as either kinase domains or full length constructs; made in house

Flt-1 = biological target: T11, Flt-1 (Homo sapiens, UniProt P17948); assay: Kinase inhibition assay (33P transfer), Flt-1
T11 construct: Kinases are expressed as either kinase domains or full length constructs; made in house
Source text: as §1, §2, §3

Zap-70 = biological target: T12, Zap-70 (Homo sapiens, UniProt P43403); assay: Kinase inhibition assay (33P transfer), Zap-70; details: Table 3; read-out: Zap-1
T12 construct: Kinases are expressed as either kinase domains or full length constructs; made in house
T12 sequence (P43403 1-619): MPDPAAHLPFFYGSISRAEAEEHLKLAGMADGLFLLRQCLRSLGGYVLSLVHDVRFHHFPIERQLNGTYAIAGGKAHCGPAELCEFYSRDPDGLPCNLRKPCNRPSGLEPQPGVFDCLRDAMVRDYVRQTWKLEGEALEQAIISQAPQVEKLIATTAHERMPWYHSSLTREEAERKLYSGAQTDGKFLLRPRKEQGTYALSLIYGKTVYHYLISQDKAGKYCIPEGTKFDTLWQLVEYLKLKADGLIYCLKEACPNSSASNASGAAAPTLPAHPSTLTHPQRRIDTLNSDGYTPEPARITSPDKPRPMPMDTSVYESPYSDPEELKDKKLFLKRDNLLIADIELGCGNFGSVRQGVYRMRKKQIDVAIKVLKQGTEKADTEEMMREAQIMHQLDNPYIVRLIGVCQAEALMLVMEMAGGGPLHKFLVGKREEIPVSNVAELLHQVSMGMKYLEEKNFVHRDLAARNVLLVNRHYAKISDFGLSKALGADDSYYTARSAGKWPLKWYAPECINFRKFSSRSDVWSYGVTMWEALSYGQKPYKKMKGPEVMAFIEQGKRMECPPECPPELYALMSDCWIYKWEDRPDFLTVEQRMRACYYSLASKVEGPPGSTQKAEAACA
In short: as §4

Kdr = biological target: T13, Kdr (Homo sapiens, UniProt P35968); assay: Kinase inhibition assay (33P transfer), Kdr; details: Table 3; read-out: KDR-1
T13 construct: Kinases are expressed as either kinase domains or full length constructs; made in house
T13 sequence (P35968 20-1356, species assumed): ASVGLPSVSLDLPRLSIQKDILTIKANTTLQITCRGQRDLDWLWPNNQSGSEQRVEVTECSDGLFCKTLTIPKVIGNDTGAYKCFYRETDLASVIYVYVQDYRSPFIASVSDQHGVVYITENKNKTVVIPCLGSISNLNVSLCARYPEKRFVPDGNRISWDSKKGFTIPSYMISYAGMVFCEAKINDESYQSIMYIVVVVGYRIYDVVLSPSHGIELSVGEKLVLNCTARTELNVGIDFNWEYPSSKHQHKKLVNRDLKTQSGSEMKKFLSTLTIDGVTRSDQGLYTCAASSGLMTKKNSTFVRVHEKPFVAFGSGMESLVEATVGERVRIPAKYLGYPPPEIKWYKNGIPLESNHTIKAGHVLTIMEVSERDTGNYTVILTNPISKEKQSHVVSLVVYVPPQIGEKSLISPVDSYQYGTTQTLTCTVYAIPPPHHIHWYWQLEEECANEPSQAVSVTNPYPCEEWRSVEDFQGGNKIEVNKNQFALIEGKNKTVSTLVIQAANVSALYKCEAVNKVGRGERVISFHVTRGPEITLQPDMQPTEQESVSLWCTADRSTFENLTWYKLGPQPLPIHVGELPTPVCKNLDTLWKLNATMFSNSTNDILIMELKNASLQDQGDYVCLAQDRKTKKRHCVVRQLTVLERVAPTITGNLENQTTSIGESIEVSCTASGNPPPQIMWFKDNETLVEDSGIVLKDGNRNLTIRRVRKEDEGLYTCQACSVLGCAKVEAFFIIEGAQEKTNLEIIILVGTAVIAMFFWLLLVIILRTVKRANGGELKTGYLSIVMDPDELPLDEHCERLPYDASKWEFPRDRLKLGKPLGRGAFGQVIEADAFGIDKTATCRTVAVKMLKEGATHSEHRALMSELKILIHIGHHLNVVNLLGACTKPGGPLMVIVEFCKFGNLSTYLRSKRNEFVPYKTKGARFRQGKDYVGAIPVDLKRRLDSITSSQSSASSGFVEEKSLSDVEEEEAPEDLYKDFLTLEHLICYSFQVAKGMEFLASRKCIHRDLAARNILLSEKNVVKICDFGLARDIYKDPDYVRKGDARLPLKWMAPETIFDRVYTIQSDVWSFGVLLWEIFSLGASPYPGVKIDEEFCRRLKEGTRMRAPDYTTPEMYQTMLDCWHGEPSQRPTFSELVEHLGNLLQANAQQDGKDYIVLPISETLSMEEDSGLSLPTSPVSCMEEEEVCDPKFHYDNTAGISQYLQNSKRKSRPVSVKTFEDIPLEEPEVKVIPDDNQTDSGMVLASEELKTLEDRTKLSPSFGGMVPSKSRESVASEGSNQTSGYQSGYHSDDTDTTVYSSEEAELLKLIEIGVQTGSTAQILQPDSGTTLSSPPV
In short: as §4

c-Met = biological target: T14, c-Met (Homo sapiens, UniProt P08581); assay: Kinase inhibition assay (33P transfer), c-Met; details: Table 2, kinase inhibition class; read-out: Met-1
T14 construct: Kinases are expressed as either kinase domains or full length constructs; made in house
T14 sequence (P08581 25-1390): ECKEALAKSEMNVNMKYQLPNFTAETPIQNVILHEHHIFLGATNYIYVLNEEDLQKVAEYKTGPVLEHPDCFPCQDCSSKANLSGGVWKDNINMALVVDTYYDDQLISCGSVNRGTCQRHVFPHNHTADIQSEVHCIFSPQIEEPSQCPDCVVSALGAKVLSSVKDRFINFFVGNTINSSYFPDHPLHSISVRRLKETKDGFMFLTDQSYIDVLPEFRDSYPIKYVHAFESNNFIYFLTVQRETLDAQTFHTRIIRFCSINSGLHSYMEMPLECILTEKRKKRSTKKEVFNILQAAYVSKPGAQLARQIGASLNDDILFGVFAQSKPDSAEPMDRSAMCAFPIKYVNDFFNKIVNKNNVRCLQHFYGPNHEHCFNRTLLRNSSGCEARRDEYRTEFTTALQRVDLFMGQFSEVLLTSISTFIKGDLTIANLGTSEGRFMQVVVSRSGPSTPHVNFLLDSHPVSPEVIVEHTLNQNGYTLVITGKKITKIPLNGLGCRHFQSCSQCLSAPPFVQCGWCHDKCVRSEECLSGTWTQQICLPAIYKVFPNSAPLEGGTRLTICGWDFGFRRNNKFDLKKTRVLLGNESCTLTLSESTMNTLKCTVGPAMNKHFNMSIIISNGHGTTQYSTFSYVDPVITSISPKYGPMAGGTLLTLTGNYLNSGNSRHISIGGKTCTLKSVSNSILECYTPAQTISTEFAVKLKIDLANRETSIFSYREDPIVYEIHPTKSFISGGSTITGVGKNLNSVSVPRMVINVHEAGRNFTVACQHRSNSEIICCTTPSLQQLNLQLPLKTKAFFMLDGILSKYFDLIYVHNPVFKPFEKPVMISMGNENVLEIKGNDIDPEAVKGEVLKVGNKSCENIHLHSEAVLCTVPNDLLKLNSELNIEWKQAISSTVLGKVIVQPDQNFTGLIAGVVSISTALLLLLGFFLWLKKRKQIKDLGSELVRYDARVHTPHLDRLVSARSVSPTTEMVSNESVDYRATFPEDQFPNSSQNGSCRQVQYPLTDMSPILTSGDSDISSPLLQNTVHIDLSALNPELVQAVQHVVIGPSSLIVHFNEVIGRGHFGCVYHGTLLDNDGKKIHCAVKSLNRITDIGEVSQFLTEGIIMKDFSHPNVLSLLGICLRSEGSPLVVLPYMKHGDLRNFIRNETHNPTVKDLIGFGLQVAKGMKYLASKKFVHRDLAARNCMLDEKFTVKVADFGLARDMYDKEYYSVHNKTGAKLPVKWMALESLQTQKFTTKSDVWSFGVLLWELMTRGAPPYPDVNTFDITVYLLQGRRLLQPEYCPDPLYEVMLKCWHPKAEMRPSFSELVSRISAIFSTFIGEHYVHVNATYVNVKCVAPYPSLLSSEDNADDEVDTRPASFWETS
In short: as §5

FGFR1 = biological target: T15, FGFR1 (Homo sapiens, UniProt P11362); assay: Kinase inhibition assay (33P transfer), FGFR1; details: read-out: FGFR1-1
T15 construct: Kinases are expressed as either kinase domains or full length constructs; made in house

Tek = biological target: T16, Tek (Homo sapiens, UniProt Q02763); assay: Kinase inhibition assay (33P transfer), Tek; details: read-out: Tek-1
T16 construct: Kinases are expressed as either kinase domains or full length constructs; made in house
In short: as §5

T1 sequence (P07948 whole entry, species assumed, the tested form may be a part): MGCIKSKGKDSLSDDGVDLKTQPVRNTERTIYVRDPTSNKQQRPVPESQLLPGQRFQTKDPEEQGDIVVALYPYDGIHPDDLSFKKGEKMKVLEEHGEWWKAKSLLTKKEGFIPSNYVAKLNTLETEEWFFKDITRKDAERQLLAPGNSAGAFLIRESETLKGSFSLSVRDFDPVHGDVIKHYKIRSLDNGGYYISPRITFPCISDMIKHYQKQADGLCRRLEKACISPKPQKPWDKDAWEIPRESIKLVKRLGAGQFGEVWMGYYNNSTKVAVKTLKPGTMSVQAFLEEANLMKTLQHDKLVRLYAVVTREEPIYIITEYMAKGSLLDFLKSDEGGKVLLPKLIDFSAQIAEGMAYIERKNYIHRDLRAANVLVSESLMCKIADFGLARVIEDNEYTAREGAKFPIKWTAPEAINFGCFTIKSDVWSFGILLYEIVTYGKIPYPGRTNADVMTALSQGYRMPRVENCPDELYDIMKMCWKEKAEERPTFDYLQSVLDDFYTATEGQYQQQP

| SMILES | pIC50 (Lyn) | pIC50 (PDGFRB) | pIC50 (AKT) | pIC50 (Src) | pIC50 (ErbB4) | pIC50 (Fyn) | pIC50 (EGFR) | pIC50 (Itk) | pIC50 (Lck) | pIC50 (Hck-1) | pIC50 (Flt-1) | pIC50 (Zap-70) | pIC50 (Kdr) | pIC50 (c-Met) | pIC50 (FGFR1) | pIC50 (Tek) |
| --- | --- | --- | --- | --- | --- | --- | --- | --- | --- | --- | --- | --- | --- | --- | --- | --- |
| NCc1ccc(Nc2ncnc(Nc3cc(-c4ccco4)n[nH]3)n2)cc1 [Compound 437] | 5.16 to 5.94 | > 5.94 | < 4.89 | 5.16 to 5.94 | 5.16 to 5.94 | 5.16 to 5.94 | 5.16 to 5.94 | 5.16 to 5.94 | 5.16 to 5.94 | 4.89 to 5.00 | 5.16 to 5.94 | < 4.89 | > 5.94 | 5.16 to 5.94 | > 5.94 | 5.00 to 5.16 |
| CC(=O)NS(=O)(=O)c1ccc(Nc2ncnc(-n3c(N)nc4ccccc43)n2)cc1 [Compound 440] | 5.08 to 5.25 | 5.25 to 6.03 | < 4.97 | < 4.97 | 5.25 to 6.03 | 5.25 to 6.03 | 5.25 to 6.03 | 4.97 to 5.08 | 5.25 to 6.03 | 5.08 to 5.25 | 5.25 to 6.03 | 5.25 to 6.03 | 5.25 to 6.03 | 5.25 to 6.03 | 5.25 to 6.03 | 5.08 to 5.25 |

Continued, values first:

| pIC50 (Lyn) | pIC50 (PDGFRB) | pIC50 (AKT) | pIC50 (Src) | pIC50 (ErbB4) | pIC50 (Fyn) | pIC50 (EGFR) | pIC50 (Itk) | pIC50 (Lck) | pIC50 (Hck-1) | pIC50 (Flt-1) | pIC50 (Zap-70) | pIC50 (Kdr) | pIC50 (c-Met) | pIC50 (FGFR1) | pIC50 (Tek) | SMILES |
| --- | --- | --- | --- | --- | --- | --- | --- | --- | --- | --- | --- | --- | --- | --- | --- | --- |
| 5.23 to 6.01 | > 6.01 | < 4.96 | 5.23 to 6.01 | < 4.96 | 5.07 to 5.23 | < 4.96 | < 4.96 | > 6.01 | < 4.96 | 5.23 to 6.01 | < 4.96 | > 6.01 | < 4.96 | > 6.01 | < 4.96 | CNc1nc2ccccc2n1-c1ncnc(Nc2cc(OC)c(OC)c(OC)c2)n1 [Compound 417] |
| 5.31 to 6.09 | > 6.09 | < 5.04 | 5.31 to 6.09 | < 5.04 | 5.31 to 6.09 | < 5.04 | 5.31 to 6.09 | > 6.09 | < 5.04 | > 6.09 | < 5.04 | > 6.09 | 5.31 to 6.09 | > 6.09 | 5.04 to 5.15 | COc1cc(Nc2ncnc(-n3c(N)nc4ccccc43)n2)cc(OC)c1OCCN1CCOCC1 [Compound 445] |
| 5.30 to 6.07 | > 6.07 | < 5.02 | 5.30 to 6.07 | 5.30 to 6.07 | 5.30 to 6.07 | 5.30 to 6.07 | > 6.07 | 5.30 to 6.07 | 5.30 to 6.07 | > 6.07 | 5.30 to 6.07 | > 6.07 | 5.30 to 6.07 | > 6.07 | 5.30 to 6.07 | COc1cc(Nc2ncnc(-n3c(Nc4cc(C)n[nH]4)nc4ccccc43)n2)cc(OC)c1OC [Compound 401] |

Source: patent US7074789B2, “Kinase inhibitors” (Amgen Inc., priority 1999, dated 2006)
